From publication PMC4876444, “Two-Photon Enzymatic Probes Visualizing Sub-cellular/Deep-brain Caspase Activities in Neurodegenerative Models” (Scientific Reports, 2016)
Where a SMILES comes first, the peptide text is derived from it. The star is where a group is joined. NH(6-Ac-2-naphthyl) = CC(=O)c1ccc2cc(N*)ccc2c1; Cbz = O=C(OCc1ccccc1)*; CH2F = FC*

How the values were obtained:
[1] = not given; remark: listed apart in the source
[2] = not given; remark: listed apart in the source
[3] = test system: caspase-3-like activities in STS-induced BV2 and HeLa cells; assay: TPFM live-cell imaging of STS-induced apoptotic cells; type: cell-based, mouse, human
Protocol: Figure 3 Bioimaging of active caspases in live cells. TPFM (λex = 760 nm; λem = 480-550 nm for all AAN-probes) of STS-induced (a) BV2 cells (2 μM, 4 h) and (b) HeLa cells (1 μM, 4 h) using C3RA/C8RA (24 μM, 1 h). Panels 3/6: cells pretreated with Z-VAD(OMe)-FMK (50 μM, 1 h) before STS addition. Panels 1/4: normal cells (DMSO). (c) WB analysis of cleaved caspase-3/-8 from (a,b). (d) TPFM of normal/apoptotic Hela cells imaged by C3RA (24 μM, up) or Ac-DEVD-AMC (40 μM, down; λem = 420–500 nm). Panels 1/3: normal cells. Panels 2/4: STS-induced cells (1 μM, 4 h). Bottom inset: bright field. Top inset: one-photon images (λex = 405 nm). (e) Real-time imaging of caspase-3/-8-like activities in live BV2 cells using 24 μM of C3RA (top)/C8RA (bottom) upon STS (2 μM) stimulation over 2 h. (f) Graphical quantification of RFU extracted from (e). (g) WB analysis of time-dependent caspase-3/-8 cleavage from STS-induced (2 μM) BV2 lysates. (h) WB analysis of time-dependent caspase-3/-7/-8 activation by detection of cleaved caspase-3/-7/-8 from lysates of HeLa cells stimulated with STS (2 μM). (i) RFU from real-time imaging of caspase-3-like activity in live HeLa cells with C3RA/C3RM/C3RE (24 μM, added 1 h before STS) upon STS (2 μM) stimulation. (j) Representative images (t = 60 min) from (i). (k) IF of STS-stimulated (2 μM, 2 h) HeLa cells by anti-caspase-3 (p17) antibody (red) with 3D projections of z-stack images at 90° view and merged with MitoTracker (green, left) or ER tracker (cyan, right). (l) TPFM of caspase-1 activation in primary cortical neurons upon glucose deprivation (GD, 8 h) followed by 1-h incubation with C1RB (24 μM) or C1FS (12 μM; λem = 450–550 nm). Inset: bright field images. NC: neuron cells incubated in normal neurobasal medium. Scale bar = 10 μm in all images.
NIH/3T3, HeLa and BV2 cell lines used in our experiments were cultured in DMEM medium supplemented with 10% (for NIH/3T3 and HeLa) or 5% (for BV2) fetal bovine serum (FBS), with 100.0 mg/L streptomycin and 100 IU/mL penicillin. […]

[4] = test system: NIH/3T3, BV2 and HeLa cells; assay: XTT cytotoxicity assay; type: cell-based, mouse, human; conditions: XTT assay, 12, 30, 60, 120 μM, 24 h
Protocol: Supplementary Figure 4. Cytotoxicity of two-photon enzymatic probes (12, 30, 60, 120 μM) in mammalian cells (NIH/3T3, BV2 and HeLa) after incubation for 24 h, as determined by XTT assay. […]
Detection of caspase activities in mammalian cells and tissues
Cell culture. The mouse embryonic fibroblast cell line (NIH/3T3), mouse microglial cell line (BV2) and human epithelial carcinoma cell line (HeLa) used in our experiments were cultured in Dulbecco’s Modified Eagle's Medium (DMEM) supplemented with 10% (for NIH/3T3 and HeLa) or 5% (for BV2) fetal bovine serum (FBS), 100.0 mg/L streptomycin and 100 IU/mL penicillin in a humidified atmosphere of 5% CO2 at 37 °C.
XTT assay. The cytotoxicity of our probes was determined by using the XTT colorimetric cell proliferation kit (Roche) following manufacturer’s guidelines. Briefly, NIH/3T3, BV2 and HeLa cells were seeded in 20~30% confluency (since they will reach >50% confluency within 24 h) into 96-well plates and incubated overnight before the addition of probes with concentrations of 12 μM, 30 μM, 60 μM and 120 μM, respectively. Probes were applied from DMSO stocks whereby DMSO never exceeded 1% in the final solution. The same volume of DMSO was used as a negative control; and the same volume of STS (200 nM) was used as a positive control. After a total treatment time of 24 h, proliferation was assayed using the XTT assay (Supplementary Fig. 4). […]

[5] = test system: caspases (-1, -3, -6, -8 and -9); assay: In vitro selectivity against a panel of recombinant caspases; type: biochemical, Human; conditions: probe 6 μM, uniform conditions with caspases -1, -3, -6, -8, -9, 2-h incubation at room temperature, tetrapeptide-AMC as references
Protocol: Figure 2 Photophysical and enzymatic properties of caspase probes. (a) Photophysical and kinetic properties of probes and free dyes. All measurements were taken in 50 mM HEPES, 50 mM NaCl, 0.1% CHAPS, 10 mM EDTA, 5% glycerol, 10 mM DTT, at pH = 7.2. (b) Time-dependent ratiometric fluorescence changes of C1RB (6 μM) incubated with caspase-1 (10 nM) over 2 h at room temperature. Data were obtained by plotting the normalized ratio of fluorescence intensity at 500 nm (F500 nm) over that at 450 nm (F450 nm). (Inset) time-dependent fluorescence emission spectra with λex = 350 nm. (c) Time-dependent “Turn-ON” effect of C1FS (6 μM) incubated with caspase-1 (10 nM) measured and normalized at 460 nm (F460 nm) over 2 h at room temperature, with the corresponding fluorescence emission spectra (inset). λex = 350 nm. […] S and N represent the fluorescence emission intensity of each reaction solution in the presence (S) and absence (N) of caspase-1. […] Normalized, relative fluorescence (RFU) values were obtained after 2-h incubation at room temperature. […]
Enzyme kinetics. […] Detailed kinetic properties of these probes were measured with target recombinant caspases using commercial tetrapeptide-AMC fluorogenic substrates as references at 25 °C in 384-well plates (Greiner Bio-One #781900). […]
shaking at 150 rpm for 24 h at 25 °C, a small portion of the reaction was analyzed by LC-MS (IT-TOF). […]

| Compound | λem (emission maximum) | δΦ (two-photon action cross-section) [1] | λex (absorption/excitation maximum) [2] | fluorescence properties for imaging caspase-3-like activities under two-photon settings, compared to C3RA ([3]; live HeLa cells, STS 1 μM 4 h, 40 μM, λex 760 nm) | cytotoxicity [4] | probe selectivity profile towards intended caspase [5] | effect of inhibitor on C3RA fluorescence in STS-induced cells ([3]; inhibitor 50 μM, 1 h before STS, BV2 and HeLa cells, C3RA 24 μM) |
| --- | --- | --- | --- | --- | --- | --- | --- |
| CC(=O)N[C@@H](Cc1ccc(O)cc1)C(=O)N[C@H](C(=O)N[C@@H](C)C(=O)N[C@@H](CC(=O)O)C(=O)Nc1ccc2cc(C(C)=O)ccc2c1)C(C)C | 448 nm | 6.9 GM | 316 nm | – | – | – | – |
| CC(=O)N[C@@H](CC(=O)O)C(=O)N[C@@H](CCC(=O)O)C(=O)N[C@H](C(=O)N[C@@H](CC(=O)O)C(=O)Nc1ccc2c(C)cc(=O)oc2c1)C(C)C [Ac-DEVD-AMC] | – | – | – | significantly poorer fluorescence properties | – | – | – |
| CC(=O)c1ccc2cc(NC(=O)[C@H](CC(=O)O)NC(=O)[C@@H](NC(=O)[C@H](CCC(=O)O)NC(=O)[C@H](CC(=O)O)NC(=O)CCC[P+](c3ccccc3)(c3ccccc3)c3ccccc3)C(C)C)ccc2c1 [C3RM, TPP-DEVD-AAN] | 448 nm | 1.4 GM | 317 nm | – | minimally cytotoxic | – | – |
| CC[C@H](C)[C@H](NC(=O)[C@H](CCC(=O)O)NC(=O)[C@@H](NC(C)=O)C(C)C)C(=O)N[C@@H](CC(=O)O)C(=O)Nc1ccc2cc(C(C)=O)ccc2c1 [C6RA, Ac-VEID-AAN] (Ac-VEID-{NH(6-Ac-2-naphthyl)}) | 448 nm | 1.8 GM | 316 nm | – | – | comparatively poor selectivity profiles | – |
| CC[C@H](C)[C@H](NC(C)=O)C(=O)N[C@@H](CCC(=O)O)C(=O)N[C@H](C(=O)N[C@@H](CC(=O)O)C(=O)Nc1ccc2cc(C(C)=O)ccc2c1)[C@@H](C)O [C8RA, Ac-IETD-AAN] (Ac-IETD-{NH(6-Ac-2-naphthyl)}) | 448 nm | 2.4 GM | 316 nm | – | minimally cytotoxic | – | – |
| CC(=O)N[C@@H](CC(C)C)C(=O)N[C@@H](CCC(=O)O)C(=O)N[C@@H](Cc1c[nH]cn1)C(=O)N[C@@H](CC(=O)O)C(=O)Nc1ccc2cc(C(C)=O)ccc2c1 [C9RA, Ac-LEHD-AAN] (Ac-LEHD-{NH(6-Ac-2-naphthyl)}) | 448 nm | 3.2 GM | 316 nm | – | – | comparatively poor selectivity profiles | – |
| Cbz-Val-Ala-Asp(OMe)-CH2F | – | – | – | – | – | – | inhibited |
